Assay results reported in BindingDB's records for patent US20250214942 (University ff Texas System, 2025).

Molecular target: T1, Receptor-interacting serine/threonine-protein kinase 1 (Homo sapiens, UniProt Q13546)
T1 sequence (Q13546 whole entry): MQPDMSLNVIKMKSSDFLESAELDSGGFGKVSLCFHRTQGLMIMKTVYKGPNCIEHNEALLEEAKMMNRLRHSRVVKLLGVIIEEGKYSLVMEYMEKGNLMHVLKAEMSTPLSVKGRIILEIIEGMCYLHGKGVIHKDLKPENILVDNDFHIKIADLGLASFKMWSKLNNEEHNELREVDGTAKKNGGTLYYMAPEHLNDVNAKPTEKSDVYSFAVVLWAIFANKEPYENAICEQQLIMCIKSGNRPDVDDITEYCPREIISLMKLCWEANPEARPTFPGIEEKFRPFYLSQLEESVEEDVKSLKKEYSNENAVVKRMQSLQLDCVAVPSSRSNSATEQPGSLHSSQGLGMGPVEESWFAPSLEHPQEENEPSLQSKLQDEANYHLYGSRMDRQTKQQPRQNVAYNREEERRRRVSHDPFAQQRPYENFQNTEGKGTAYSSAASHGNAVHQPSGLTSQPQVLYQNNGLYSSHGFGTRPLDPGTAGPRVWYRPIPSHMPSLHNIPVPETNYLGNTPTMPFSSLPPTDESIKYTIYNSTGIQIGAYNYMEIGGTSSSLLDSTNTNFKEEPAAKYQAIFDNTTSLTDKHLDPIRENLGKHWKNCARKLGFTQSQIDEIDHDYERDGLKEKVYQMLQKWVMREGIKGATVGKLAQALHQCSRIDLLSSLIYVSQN
Assay: ADP-Glo Kinase Assay
Procedure: In order to measure RIPK1 activity the ADP-Glo kinase assay (Promega, Catalog #V7002) was used to measure the conversion of ATP to ADP. […] Stock solutions of the test compounds were prepared in 100% DMSO (Sigma, Catalog #D2650) and serially diluted 1:3 using 100% DMSO. Compounds were additionally diluted 1:40 in assay buffer, and 2 μL/well were transferred to the assay plate. 4 μL/well (final concentration of 5 nM) of RIPK1 protein (SignalChem, Catalog #R07-1IG-05) diluted in assay buffer and added to the assay plate followed by a 10 minute preincutation at rt. 4 μL/well of ATP (Promega, Catalog #V7002) (final concentration of 50 μM) diluted in assay buffer were then added to the assay plate followed by a 6 h reaction time. Final concentrations of RIPK1 and ATP refer to a 10 μL volume. Luminescence was measured using a BioTek Synergy™ NEO plate reader. IC50 values were calculated using a four-parameter logistic curve fit using Genedata Screener software.

- IC50: 80 nM
SMILES: O=C(N1N=CCC1c1cc(F)cc(F)c1)C12CC(Cn3ncc4ncccc43)(C1)C2 (stereo unspecified) [US20250214942, Example 148]
